Measured values taken from patent publication US11339419B2, “Scavenger protein(s) for improved preservation of analyte detection sensor(s) and method(s) of use thereof” (Siemens Healthcare Diagnostics Inc., priority 2017, dated 2022).
Where “and” joins values, the source holds several entries; their conditions need not be identical. Equal values may be shown once.

Experiments:
[1] = system: creatininase (BBI Solutions); test: BBI Solutions Creatininase Enzyme Absorbance with BSA and Proclin 300; assay type: biochemical
Text: Absorbance measurements of the creatininase enzyme(s) were taken via spectrophotometer for each aqueous solution (represented as columns 1-5 in Tables 5-8—column 6 is a blank), the absorbance being directly proportional to the enzyme activity being measured-which for Tables 5-8 is creatininase enzyme activity. Accordingly, the higher the absorbance measurement, the higher the enzyme activity of creatininase. […] In addition, the mean values, standard deviations, and coefficients of variation are all presented for the enzyme activity/absorbance of each aqueous solution. All measurements were taken at 37° C.

creatininase (Toyobo) = test: Toyobo Creatininase Enzyme Absorbance with BSA and MIT; assay type: biochemical; conditions: Day 0; for % Bias: 50 ppm MIT vs no MIT; for Creatininase Enzyme Absorbance / MEAN: 50 ppm MIT
Text: Absorbance measurements of the creatininase enzyme(s) were taken via spectrophotometer for each aqueous solution (represented as columns 1-5 in Tables 5-8—column 6 is a blank), the absorbance being directly proportional to the enzyme activity being measured-which for Tables 5-8 is creatininase enzyme activity. Accordingly, the higher the absorbance measurement, the higher the enzyme activity of creatininase. Columns 7-11 represent five replicate readings in which the solution only contains BSA (i.e., there is no biocide(s) present in the solution). In addition, the mean values, standard deviations, and coefficients of variation are all presented for the enzyme activity/absorbance of each aqueous solution. All measurements were taken at 37° C.
As depicted in Table 6, creatininase (commercially offered for sale by Toyobo) enzyme activity is measured against various concentrations of MIT (biocide) and BSA (scavenger protein) over a period of 14 days (with absorbance measurement taken at 0, 4, and 14 days) for five different aqueous solutions (represented as columns 1-5—column 6 is a blank).

[2] = Day 0, BSA 5 mg/mL only, no Proclin 300, listed as of 0.7% Proclin 300
[3] = Day 0, BSA 5 mg/mL only, no Proclin 300, listed as of 1.4% Proclin 300
[4] = Day 0, BSA 25 mg/mL only, no Proclin 300, listed as of 0.7% Proclin 300
[5] = Day 0, BSA 25 mg/mL only, no Proclin 300, listed as of 1.4% Proclin 300
[6] = Day 0, BSA 50 mg/mL only, no Proclin 300, listed as of 0.7% Proclin 300
[7] = Day 0, BSA 50 mg/mL only, no Proclin 300, listed as of 1.4% Proclin 300
[8] = Day 4, BSA 5 mg/mL only, no Proclin 300, listed as of 0.7% Proclin 300
[9] = Day 4, BSA 5 mg/mL only, no Proclin 300, listed as of 1.4% Proclin 300
[10] = Day 4, BSA 25 mg/mL only, no Proclin 300, listed as of 0.7% Proclin 300
[11] = Day 4, BSA 25 mg/mL only, no Proclin 300, listed as of 1.4% Proclin 300
[12] = Day 4, BSA 50 mg/mL only, no Proclin 300, listed as of 0.7% Proclin 300
[13] = Day 4, BSA 50 mg/mL only, no Proclin 300, listed as of 1.4% Proclin 300
[14] = Day 14, BSA 5 mg/mL only, no Proclin 300, listed as of 0.7% Proclin 300
[15] = Day 14, BSA 5 mg/mL only, no Proclin 300, listed as of 1.4% Proclin 300
[16] = Day 14, BSA 25 mg/mL only, no Proclin 300, listed as of 0.7% Proclin 300
[17] = Day 14, BSA 25 mg/mL only, no Proclin 300, listed as of 1.4% Proclin 300
[18] = Day 14, BSA 50 mg/mL only, no Proclin 300, listed as of 0.7% Proclin 300
[19] = Day 14, BSA 50 mg/mL only, no Proclin 300, listed as of 1.4% Proclin 300
[20] = 5 mg/mL BSA, no MIT (row of 50 ppm MIT)
[21] = 5 mg/mL BSA, no MIT (row of 100 ppm MIT)
[22] = 25 mg/mL BSA, no MIT (row of 50 ppm MIT)
[23] = 25 mg/mL BSA, no MIT (row of 100 ppm MIT)
[24] = 50 mg/mL BSA, no MIT (row of 50 ppm MIT)
[25] = 50 mg/mL BSA, no MIT (row of 100 ppm MIT)

- MEAN absorbance, solutions 7-11 [1, 2]: 0.45
- MEAN absorbance, solutions 7-11 [1, 3]: 0.44
- MEAN absorbance, solutions 7-11 [1, 4]: 0.45
- MEAN absorbance, solutions 7-11 [1, 5]: 0.41
- Absorbance, solutions 7-11 [1, 6]: 0.682 and 0.675 and 0.716
- MEAN absorbance, solutions 7-11 [1, 6]: 0.48
- MEAN absorbance, solutions 7-11 [1, 7]: 0.39
- MEAN absorbance, solutions 7-11 [1, 8]: 0.69
- MEAN absorbance, solutions 7-11 [1, 9]: 0.65
- Absorbance, solutions 7-11 [1, 10]: 0.783 and 0.769 and 0.787 and 0.807
- MEAN absorbance, solutions 7-11 [1, 10]: 0.56
- MEAN absorbance, solutions 7-11 [1, 11]: 0.52
- MEAN absorbance, solutions 7-11 [1, 12]: 0.44
- MEAN absorbance, solutions 7-11 [1, 13]: 0.44
- Absorbance, solutions 7-11 [1, 14]: 0.993 and 0.992 and 0.972 and 1.009
- MEAN absorbance, solutions 7-11 [1, 14]: 0.76
- MEAN absorbance, solutions 7-11 [1, 15]: 0.75
- MEAN absorbance, solutions 7-11 [1, 16]: 0.60
- MEAN absorbance, solutions 7-11 [1, 17]: 0.59
- MEAN absorbance, solutions 7-11 [1, 18]: 0.44
- MEAN absorbance, solutions 7-11 [1, 19]: 0.42
- absorbance of the creatininase enzyme compared to samples containing 0 mg/mL of BSA ([1]; day 4, Proclin 300 0.7%, 5, 25 and 50 mg/mL BSA): mild increase
- creatininase absorbance, solutions 7-11 ([1]; days 4 and 14, only BSA, no Proclin 300): increased (or at least maintained)
- Creatininase Enzyme Absorbance, columns 7-11 (creatininase (Toyobo); [20]): 0.791 and 0.78
- MEAN (columns 7-11) (creatininase (Toyobo); [20]): 0.59
- Creatininase Enzyme Absorbance, columns 7-11 (creatininase (Toyobo); [21]): 0.806 and 0.802 and 0.845
- MEAN (columns 7-11) (creatininase (Toyobo); [21]): 0.61
- Creatininase Enzyme Absorbance, columns 7-11 (creatininase (Toyobo); [22]): 0.767
- MEAN (columns 7-11) (creatininase (Toyobo); [22]): 0.58
- Creatininase Enzyme Absorbance, columns 7-11 (creatininase (Toyobo); [23]): 0.751 and 0.768 and 0.799 and 0.806
- MEAN (columns 7-11) (creatininase (Toyobo); [23]): 0.57
- Creatininase Enzyme Absorbance, columns 7-11 (creatininase (Toyobo); [24]): 0.845
- MEAN (columns 7-11) (creatininase (Toyobo); [24]): 0.64
- Creatininase Enzyme Absorbance, columns 7-11 (creatininase (Toyobo); [25]): 0.735 and 0.782 and 0.778
- MEAN (columns 7-11) (creatininase (Toyobo); [25]): 0.55
- % Bias (creatininase (Toyobo); 5 mg/mL BSA): 6.6%
- % Bias (creatininase (Toyobo); 25 mg/mL BSA): 8.6%
- % Bias (creatininase (Toyobo); 50 mg/mL BSA): 4.9%
- MEAN (creatininase (Toyobo); 5 mg/mL BSA): 0.63
- MEAN (creatininase (Toyobo); 25 mg/mL BSA): 0.63
- MEAN (creatininase (Toyobo); 50 mg/mL BSA): 0.67
Substance: bovine serum albumin [BSA]
- Absorbance, solutions 7-11 [1, 2]: 0.658 and 0.656 and 0.654 and 0.693 and 0.67
- Absorbance, solutions 7-11 [1, 3]: 0.65 and 0.644 and 0.679 and 0.656 and 0.652
- Absorbance, solutions 7-11 [1, 4]: 0.669 and 0.654 and 0.645 and 0.676 and 0.685
- Absorbance, solutions 7-11 [1, 5]: 0.613 and 0.607 and 0.624 and 0.644 and 0.627
- Absorbance, solutions 7-11 [1, 7]: 0.593 and 0.598 and 0.617 and 0.624 and 0.606
- Absorbance, solutions 7-11 [1, 8]: 0.886 and 0.907 and 0.938 and 0.922 and 0.893
- Absorbance, solutions 7-11 [1, 9]: 0.863 and 0.829 and 0.895 and 0.929 and 0.882
- Absorbance, solutions 7-11 [1, 11]: 0.757 and 0.715 and 0.735 and 0.756 and 0.767
- Absorbance, solutions 7-11 [1, 12]: 0.671 and 0.651 and 0.656 and 0.677 and 0.657
- Absorbance, solutions 7-11 [1, 13]: 0.671 and 0.657 and 0.676 and 0.674 and 0.645
- Absorbance, solutions 7-11 [1, 15]: 0.987 and 0.959 and 0.967 and 1.007 and 0.986
- Absorbance, solutions 7-11 [1, 16]: 0.841 and 0.843 and 0.815 and 0.846 and 0.808
- Absorbance, solutions 7-11 [1, 17]: 0.825 and 0.799 and 0.805 and 0.829 and 0.817
- Absorbance, solutions 7-11 [1, 18]: 0.672 and 0.653 and 0.659 and 0.682 and 0.685
- Absorbance, solutions 7-11 [1, 19]: 0.652 and 0.643 and 0.64 and 0.67 and 0.655
- Creatininase Enzyme Absorbance (creatininase (Toyobo); 5 mg/mL BSA): 0.893 and 0.808 and 0.806 and 0.812 and 0.843
- Creatininase Enzyme Absorbance (creatininase (Toyobo); 25 mg/mL BSA): 0.895 and 0.829 and 0.788 and 0.82 and 0.831
- Creatininase Enzyme Absorbance (creatininase (Toyobo); 50 mg/mL BSA): 0.905 and 0.862 and 0.847 and 0.863 and 0.895
